Experimental data taken from patent EP1267826B1, “PHARMACEUTICAL COMPOSITION FOR TREATMENT OF MUCOSAL EPITHELIAL ULCERATION AND/OR EROSION” (LIF-HLAUP EHF. BIO-GELS PHARMACEUTICALS INC., priority 1999, dated 2001).
Values joined by “and” are separate entries in the source; they are usually repeats but may differ in a detail not shown here. Equal values may be shown once.

Tests used:
[1] = tested on: MMP's; details: literature (Burns et al. 1989; Gabler et al. 1991); cited from earlier work
[2] = molecular target: T1, MMP-2 (Homo sapiens, UniProt P08253); assay: Zymography, inhibition of gelatinolytic activity; type: biochemical; details: MMP-2 acquired from HT-1080; result determined visually; read-out: concentration at which complete inhibition was achieved
T1 construct: known to secrete a large amount of several matrix-degrading enzymes, among which are MMP-2 and MMP-9; endogenous in cells; host or cells: HT-1080 human fibrosarcoma cells (secreted enzyme)
T1 sequence (P08253 110-660): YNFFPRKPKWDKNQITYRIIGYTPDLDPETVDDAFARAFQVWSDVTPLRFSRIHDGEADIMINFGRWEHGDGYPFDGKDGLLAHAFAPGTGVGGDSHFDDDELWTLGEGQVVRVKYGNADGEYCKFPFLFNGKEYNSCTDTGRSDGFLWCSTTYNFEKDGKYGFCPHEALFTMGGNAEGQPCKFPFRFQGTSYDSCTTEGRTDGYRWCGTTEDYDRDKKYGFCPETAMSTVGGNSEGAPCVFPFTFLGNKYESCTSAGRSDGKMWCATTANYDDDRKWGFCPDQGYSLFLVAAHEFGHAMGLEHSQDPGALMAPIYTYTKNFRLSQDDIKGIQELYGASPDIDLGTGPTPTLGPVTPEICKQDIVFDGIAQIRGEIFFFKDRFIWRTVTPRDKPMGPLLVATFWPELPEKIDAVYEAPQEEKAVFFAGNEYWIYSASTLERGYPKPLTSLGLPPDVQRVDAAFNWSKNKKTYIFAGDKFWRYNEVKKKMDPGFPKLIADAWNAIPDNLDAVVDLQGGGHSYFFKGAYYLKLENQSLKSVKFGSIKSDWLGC
Excerpt: (§1) In checking the inhibition of the doxycycline on MMP's a Zymography method was used (Mackay et al., Cancer Res., 50(18), 5997-6001, 1990).
(§2) Cell culture: HT-1080 is human fibrosarcoma cell line which is known to secrete a large amount of several matrix-degrading enzymes, among which are MMP-2 and MMP-9 (Kawamata et al., International Journal of Oncology, 13, 699-704, 1998).

[3] = molecular target: T2, MMP-9 (Homo sapiens, UniProt P14780); assay: Zymography, inhibition of gelatinolytic activity; type: biochemical; details: MMP-9 acquired from HT-1080; result determined visually; read-out: concentration at which complete inhibition was achieved
T2 construct: known to secrete a large amount of several matrix-degrading enzymes, among which are MMP-2 and MMP-9; endogenous in cells; host or cells: HT-1080 human fibrosarcoma cells (secreted enzyme)
T2 sequence (P14780 94-707): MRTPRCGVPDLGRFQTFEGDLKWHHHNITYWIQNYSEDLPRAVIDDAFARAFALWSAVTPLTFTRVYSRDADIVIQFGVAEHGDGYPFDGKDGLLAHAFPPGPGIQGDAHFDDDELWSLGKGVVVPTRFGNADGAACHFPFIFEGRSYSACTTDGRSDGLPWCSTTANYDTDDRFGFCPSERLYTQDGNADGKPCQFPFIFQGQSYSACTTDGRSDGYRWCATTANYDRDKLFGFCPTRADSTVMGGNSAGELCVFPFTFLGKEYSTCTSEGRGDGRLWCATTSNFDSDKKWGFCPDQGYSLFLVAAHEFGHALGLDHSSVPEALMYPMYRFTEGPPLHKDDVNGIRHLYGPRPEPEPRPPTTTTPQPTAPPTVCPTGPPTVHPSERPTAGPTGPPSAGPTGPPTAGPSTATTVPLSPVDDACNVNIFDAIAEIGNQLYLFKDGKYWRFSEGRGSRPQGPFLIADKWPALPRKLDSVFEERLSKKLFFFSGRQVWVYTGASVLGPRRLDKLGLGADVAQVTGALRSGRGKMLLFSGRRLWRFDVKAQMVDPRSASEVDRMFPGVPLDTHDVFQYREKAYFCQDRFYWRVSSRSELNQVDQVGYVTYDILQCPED
Excerpt: as §1, §2

Row | SMILES | inhibition of the MMP's (in words) [1] | IC100 [2] | IC100 [3]
1 | CCN(CC)CCCCCCCCOC(=O)c1cc(OC)c(OC)c(OC)c1 [TMB-8] | have shown inhibition of MMP's | – | –
2 | C[C@H]1c2cccc(O)c2C(=O)C2=C(O)[C@]3(O)C(=O)C(C(N)=O)=C(O)[C@@H](N(C)C)[C@@H]3[C@@H](O)[C@@H]21 [doxycycline] | – | 100 µM and 48 µg/mL | 50 µM and 24 µg/mL
3 | O=C(O)CN(CCN(CC(=O)O)CC(=O)O)CC(=O)O [EDTA] | have shown inhibition of MMP's | – | –
